According to patent publication US9675075B2, “Pest control composition” (MEIJI SEIKA PHARMA CO., LTD., priority 2007, dated 2017):

Tests used:
Format in all cases: in vivo
Aphis gossypii [1] = assay: Test Example 1: pesticidal effect against Aphis gossypii (Part 1), cucumber leaf disk, death rate of first-instar larvae and Colby theoretical value; settings: other insecticide 0.078 ppm alone (compound 261 0 ppm); for Theoretical value calculated by Colby's formula: Table 19; for Death rate of Aphis gossypii by single active ingredient or admixture: cucumber leaf disk, first-instar larvae, 3 days
Excerpt: (§1) A leaf disk having a diameter of 2.0 cmφ was cut out from a cucumber grown in a pot and was placed in a 5.0 cm-Schale. Test admixture solutions, prepared by diluting the composition of the present invention with a 50% aqueous acetone solution (0.05% Tween 20 added) to predetermined concentrations specified in Table 18, test single active ingredient solutions in which only compound 261 had been dissolved without mixing other insecticides, or test single active ingredient solutions in which only other insecticides had been dissolved without mixing any pyripyropene derivative were spread over the cucumber leaf disk. The leaf disk was then air dried. Ten larvae at the first instar born of Aphis gossypii were released in the Schale. Thereafter, the Schale was lidded and was allowed to stand in a humidistat chamber (light period 16 hr-dark period 8 hr) (25° C.). […] Death rate (%)={number of dead larvae/(number of survived larvae+number of dead larvae)}×100
(§2) Colby's formula: Theoretical value (%)=100−(A×B)/100
wherein A: 100—(death rate when treatment was performed only with compound 261); and • B: 100—(death rate when treatment was performed only with each of flonicamid, acetamiprid, fipronil, imidacloprid)
(§3) When the pesticidal effect (Table 18) of the composition of the present invention in, an admixture form against Aphis gossypii exceeded the theoretical value calculated by the Colby's formula shown in Table 19, the admixture was determined to have a synergistic effect.

Plutella xylostella = assay: Test Example 3: pesticidal effect against Plutella xylostella, cabbage leaf disk, death rate of second-instar larvae and Colby theoretical value; settings: other insecticide 0.156 ppm alone (compound 261 0 ppm)
Excerpt: A leaf disk having a diameter of 5.0 cmφ was cut out from a cabbage grown in a pot and was placed in a plastic cup. Test admixture solutions, prepared by diluting the composition of the present invention with a 50% aqueous acetone solution (0.05% Tween 20 added) to predetermined concentrations specified in Table 22, test single active ingredient solutions in which only compound 261 had been dissolved without mixing other insecticides, or test single active ingredient solutions in which only other insecticides had been dissolved without mixing any pyripyropene derivative were spread over the cabbage leaf disk. The leaf disk was then air dried. Five larvae at the second instar born of Plutella xylostella were released in the cup. Thereafter, the cup was lidded and was allowed to stand in a humidistat chamber (light period 16 hr-dark period 8 hr) (25° C.). […] Death rate (%)={number of dead larvae/(number of survived larvae+number of dead larvae)}×100
Colby's formula: Theoretical value (%)=100−(A×B)/100 […]
When the pesticidal effect (Table 22) of the composition of the present invention in an admixture form against Plutella xylostella exceeded the theoretical value calculated by the Colby's formula shown in Table 23, the admixture was determined to have a synergistic effect.

Aphis gossypii [2] = assay: Test Example 2: pesticidal effect against Aphis gossypii (Part 2), same test as Test Example 1 with other insecticides, death rate and Colby theoretical value; settings: other insecticide 0.078 ppm alone (compound 261 0 ppm); for Theoretical value calculated by Colby's formula: Table 21; for Pesticidal effect against Aphis gossypii, death rate: cucumber leaf disk, 3 days
Excerpt: as §1, §2, §3
The same test as in Test Example 1 was performed, except that the other insecticides were changed to those specified in Table 20.

Compound: C/C(=N\C#N)N(C)Cc1ccc(Cl)nc1 [acetamiprid]
- Theoretical value calculated by Colby's formula (Aphis gossypii [1]): 58%
- Death rate of Aphis gossypii by single active ingredient or admixture (Aphis gossypii [1]): 58%

Compound: CCOCn1c(-c2ccc(Cl)cc2)c(C#N)c(Br)c1C(F)(F)F [chlorfenapyr]
- Theoretical value calculated by Colby's formula (Plutella xylostella; Table 23): 0%
- Pesticidal effect against Plutella xylostella, deathrate (Plutella xylostella; cabbage leaf disk, second-instar larvae, 3 days): 0%

Compound: CN/C(=N\[N+](=O)[O-])NCc1cnc(Cl)s1 [clothianidin]
- Theoretical value calculated by Colby's formula (Aphis gossypii [2]): 79%
- Pesticidal effect against Aphis gossypii, death rate (Aphis gossypii [2]): 79%

Compound: CN/C(=N/CC1CCOC1)N[N+](=O)[O-] (stereo not shown) [dinotefuran]
- Theoretical value calculated by Colby's formula (Aphis gossypii [2]): 40%
- Pesticidal effect against Aphis gossypii, death rate (Aphis gossypii [2]): 40%

Compound: N#Cc1nn(-c2c(Cl)cc(C(F)(F)F)cc2Cl)c(N)c1[S+]([O-])C(F)(F)F (stereo not shown) [fipronil]
- Theoretical value calculated by Colby's formula (Aphis gossypii [1]): 0%
- Death rate of Aphis gossypii by single active ingredient or admixture (Aphis gossypii [1]): 0%

Compound: N#CCNC(=O)c1cnccc1C(F)(F)F [flonicamid]
- Theoretical value calculated by Colby's formula (Aphis gossypii [1]): 10%
- Death rate of Aphis gossypii by single active ingredient or admixture (Aphis gossypii [1]): 10%

Compound: O=[N+]([O-])NC1=NCCN1Cc1ccc(Cl)nc1 [imidacloprid]
- Theoretical value calculated by Colby's formula (Aphis gossypii [1]): 20%
- Death rate of Aphis gossypii by single active ingredient or admixture (Aphis gossypii [1]): 20%

Compound: CN1COCN(Cc2cnc(Cl)s2)/C1=N\[N+](=O)[O-] [thiamethoxam]
- Theoretical value calculated by Colby's formula (Aphis gossypii [2]): 65%
- Pesticidal effect against Aphis gossypii, death rate (Aphis gossypii [2]): 65%
